Measurements: patent US6914045B2, “Glycopeptide antibiotics” (Wyeth Holdings Corporation, priority 2001, dated 2005)
≈ marks a conversion by molar mass, not a printed value.

Assays:
Assay in all cases: in vitro antibacterial evaluation, MIC by broth dilution
Format in all cases: cell-based
[1] = test system: Enterococcus sp.; conditions: broth dilution, 18 hours at 35° C.
In short: (§1)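 Broth dilution per NCCLS standard M7-A2 in Muller-Hinton II […], with an inoculum of 5×10^5 CFU/mL and antibiotic spanning 64-0.06 μg/mL. The MIC is the lowest concentration that inhibits growth of the organism.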

[2] = test system: Escherichia coli; conditions: 18 hours at 35° C.
In short: as §1

[3] = test system: Staphylococcus sp.; conditions: broth dilution, 18 hours at 35° C.
In short: as §1

[4] = test system: Streptococcus sp.; conditions: broth dilution, 18 hours at 35° C.
In short: as §1

MIC Enterococcus avium (GC 4558) ([1]; Enterococcus avium (GC 4558)): 0.5 mg/L (≈ 0.35 µM)
MIC Enterococcus faecalis (ATCC 29212) ([1]; Enterococcus faecalis (ATCC 29212)): 0.5 mg/L (≈ 0.35 µM)
MIC Enterococcus faecalis (GC 4553) ([1]; Enterococcus faecalis (GC 4553)): 0.5 mg/L (≈ 0.35 µM)
MIC Enterococcus faecalis (GC 4554) ([1]; Enterococcus faecalis (GC 4554)): >0.5 mg/L
MIC Enterococcus faecalis (GC 6189) ([1]; Enterococcus faecalis (GC 6189)): 0.5 mg/L (≈ 0.35 µM)
MIC Enterococcus faecium (GC 2243) ([1]; Enterococcus faecium (GC 2243)): 16 mg/L (≈ 11.2 µM)
MIC Enterococcus faecium (GC 4556) ([1]; Enterococcus faecium (GC 4556)): 16 mg/L (≈ 11.2 µM)
MIC Enterococcus faecium (GC 4557) ([1]; Enterococcus faecium (GC 4557)): 2 mg/L (≈ 1.4 µM)
MIC Enterococcus faecalis (GC 2242) [1]: 0.5 mg/L (≈ 0.35 µM)
MIC Enterococcus faecalis (GC 2691) [1]: 0.5 mg/L (≈ 0.35 µM)
MIC Enterococcus faecalis (GC 3059) [1]: 0.5 mg/L (≈ 0.35 µM)
MIC Enterococcus faecalis (GC 4552) [1]: >0.5 mg/L
MIC Enterococcus faecalis (ATCC 29212) ([1]; strain ATCC 29212): 0.5 mg/L (≈ 0.35 µM)
MIC Enterococcus faecalis (GC 2242) ([1]; strain GC 2242): 0.5 mg/L (≈ 0.35 µM)
MIC Enterococcus faecium (GC 2243) ([1]; strain GC 2243): 16 mg/L (≈ 11.2 µM)
MIC Enterococcus faecalis (GC 2691) ([1]; strain GC 2691): 0.5 mg/L (≈ 0.35 µM)
MIC Enterococcus faecalis (GC 3059) ([1]; strain GC 3059): 0.5 mg/L (≈ 0.35 µM)
MIC Enterococcus faecalis (GC 4552) ([1]; strain GC 4552): >0.5 mg/L
MIC Enterococcus faecalis (GC 4553) ([1]; strain GC 4553): 0.5 mg/L (≈ 0.35 µM)
MIC Enterococcus faecalis (GC 4554) ([1]; strain GC 4554): >0.5 mg/L
MIC Enterococcus faecium (GC 4556) ([1]; strain GC 4556): 16 mg/L (≈ 11.2 µM)
MIC Enterococcus faecium (GC 4557) ([1]; strain GC 4557): 2 mg/L (≈ 1.4 µM)
MIC Enterococcus avium (GC 4558) ([1]; strain GC 4558): 0.5 mg/L (≈ 0.35 µM)
MIC Enterococcus faecalis (GC 6189) ([1]; strain GC 6189): 0.5 mg/L (≈ 0.35 µM)
MIC Escherichia coli (ATCC 25922) ([2]; Escherichia coli (ATCC 25922)): >0.5 mg/L
MIC Escherichia coli (GC 4559) ([2]; Escherichia coli (GC 4559)): >0.5 mg/L
MIC Escherichia coli (GC 4560) ([2]; Escherichia coli (GC 4560)): 0.5 mg/L (≈ 0.35 µM)
MIC Coagulase Negative Staphylococcus (GC 4547) [3]: 2 mg/L (≈ 1.4 µM)
MIC Coagulase Negative Staphylococcus (GC 4548) [3]: 2 mg/L (≈ 1.4 µM)
MIC Coagulase Negative Staphylococcus (GC 4549) [3]: 2 mg/L (≈ 1.4 µM)
MIC Coagulase Negative Staphylococcus (GC 4551) [3]: 4 mg/L (≈ 2.8 µM)
MIC Coagulase Negative Staphylococcus (GC 6257) [3]: 1 mg/L (≈ 0.7 µM)
MIC Staphylococcus aureus (ATCC 29213) [3]: 0.5 mg/L (≈ 0.35 µM)
MIC Staphylococcus aureus (GC 1131) [3]: 0.5 mg/L (≈ 0.35 µM)
MIC Staphylococcus aureus (GC 3051) [3]: 0.5 mg/L (≈ 0.35 µM)
MIC Staphylococcus aureus (GC 3053) [3]: 0.5 mg/L (≈ 0.35 µM)
MIC Staphylococcus aureus (GC 4541) [3]: 0.5 mg/L (≈ 0.35 µM)
MIC Staphylococcus aureus (GC 4542) [3]: 0.5 mg/L (≈ 0.35 µM)
MIC Staphylococcus aureus (GC 4544) [3]: 0.5 mg/L (≈ 0.35 µM)
MIC Staphylococcus aureus (GC 4545) [3]: 0.5 mg/L (≈ 0.35 µM)
MIC Staphylococcus aureus-SMITH (GC 4543) [3]: 0.5 mg/L (≈ 0.35 µM)
MIC Staphylococcus aureus (ATCC 29213) ([3]; strain ATCC 29213): 0.5 mg/L (≈ 0.35 µM)
MIC Staphylococcus aureus (GC 1131) ([3]; strain GC 1131): 0.5 mg/L (≈ 0.35 µM)
MIC Staphylococcus aureus (GC 3051) ([3]; strain GC 3051): 0.5 mg/L (≈ 0.35 µM)
MIC Staphylococcus aureus (GC 3053) ([3]; strain GC 3053): 0.5 mg/L (≈ 0.35 µM)
MIC Staphylococcus aureus (GC 4541) ([3]; strain GC 4541): 0.5 mg/L (≈ 0.35 µM)
MIC Staphylococcus aureus (GC 4542) ([3]; strain GC 4542): 0.5 mg/L (≈ 0.35 µM)
MIC Staphylococcus aureus (GC 4544) ([3]; strain GC 4544): 0.5 mg/L (≈ 0.35 µM)
MIC Staphylococcus aureus (GC 4545) ([3]; strain GC 4545): 0.5 mg/L (≈ 0.35 µM)
MIC Streptococcus agalactiae (GC 4564) [4]: 1 mg/L (≈ 0.7 µM)
MIC Streptococcus pneumoniae (ATCC 6301) [4]: 0.25 mg/L (≈ 0.175 µM)
MIC Streptococcus pneumoniae (GC 1894) [4]: 0.25 mg/L (≈ 0.175 µM)
MIC Streptococcus pneumoniae (GC 4565) [4]: 0.5 mg/L (≈ 0.35 µM)
MIC Streptococcus pyogenes (GC 4563) [4]: 0.12 mg/L (≈ 0.084 µM)
MIC Streptococcus pneumoniae (ATCC 6301) ([4]; strain ATCC 6301): 0.25 mg/L (≈ 0.175 µM)
MIC Streptococcus pneumoniae (GC 1894) ([4]; strain GC 1894): 0.25 mg/L (≈ 0.175 µM)
MIC Streptococcus pyogenes (GC 4563) ([4]; strain GC 4563): 0.12 mg/L (≈ 0.084 µM)
MIC Streptococcus agalactiae (GC 4564) ([4]; strain GC 4564): 1 mg/L (≈ 0.7 µM)
MIC Streptococcus pneumoniae (GC 4565) ([4]; strain GC 4565): 0.5 mg/L (≈ 0.35 µM)
Structure (SMILES): CC(c1ccccc1)C1NC(=O)CNC(=O)C(CO)NC(=O)C(C(O)C2CNC(=N)N2C2OC(CO)C(O)C(O)C2O)NC(=O)C(C(O)C2CNC(=N)N2)NC(=O)C(Cc2ccc(OC3OC(CO)C(OC4OC(COC(=O)NCc5ccccc5)C(O)C(O)C4O)C(O)C3O)cc2)NC1=O (stereo not drawn) [Example 257b]
MIC Staphylococcus haemolyticus (GC 4546) [3]: 2 mg/L (≈ 1.4 µM)
